pIC50: −log10 of the molar value. In brackets after ≈: the same amount, converted by molar mass. Activity calls are given as the source filed them. No cut-off for these calls is given here.
Columns and labels:
[1] = molecular target: Protease (Human immunodeficiency virus 1) (UniProt Q9YQ12); assay: Inhibition of HIV1 protease at 50 nM using Abz-Tyr-Ile-Nle-Nph-Gln-Arg as substrate preincubated for 10 mins followed by substrate addition and measured by FRET assay
[2] = molecular target: Cathepsin D (Homo sapiens, UniProt P07339); assay: Inhibition of human placenta CatD using Abz-Lys-Pro-Ala-Glu-Phe-Nph-Ala-Leu as substrate preincubated for 10 mins followed by substrate addition and measured by FRET assay
Chain of Cathepsin D (P07339 65-162 limits assumed): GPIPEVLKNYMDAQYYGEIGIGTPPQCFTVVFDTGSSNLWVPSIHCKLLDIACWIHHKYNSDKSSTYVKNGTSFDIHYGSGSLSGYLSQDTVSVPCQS
Chain of Cathepsin D (P07339 169-412 limits assumed): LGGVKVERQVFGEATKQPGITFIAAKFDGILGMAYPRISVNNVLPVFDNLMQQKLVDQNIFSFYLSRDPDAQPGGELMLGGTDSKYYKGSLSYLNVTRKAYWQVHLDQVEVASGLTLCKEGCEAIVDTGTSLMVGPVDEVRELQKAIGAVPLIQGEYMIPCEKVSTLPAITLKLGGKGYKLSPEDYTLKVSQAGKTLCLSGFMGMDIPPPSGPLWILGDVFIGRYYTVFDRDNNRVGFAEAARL

[3] = molecular target: T1, Renin (Homo sapiens) (UniProt P00797); assay: Inhibition of recombinant human N-terminal FLAG-tagged renin (67 to 406 residues) expressed in HEK cells at 50 nM using Arg-Glu(EDANS)-Ile-His-Pro-Phe-His-Leu-Val-Ile-His-Thr-Lys(Dabcyl)-Arg as substrate preincubated for 10 mins followed by substrate addition and measured by FRET assay
T1 sequence (whole entry): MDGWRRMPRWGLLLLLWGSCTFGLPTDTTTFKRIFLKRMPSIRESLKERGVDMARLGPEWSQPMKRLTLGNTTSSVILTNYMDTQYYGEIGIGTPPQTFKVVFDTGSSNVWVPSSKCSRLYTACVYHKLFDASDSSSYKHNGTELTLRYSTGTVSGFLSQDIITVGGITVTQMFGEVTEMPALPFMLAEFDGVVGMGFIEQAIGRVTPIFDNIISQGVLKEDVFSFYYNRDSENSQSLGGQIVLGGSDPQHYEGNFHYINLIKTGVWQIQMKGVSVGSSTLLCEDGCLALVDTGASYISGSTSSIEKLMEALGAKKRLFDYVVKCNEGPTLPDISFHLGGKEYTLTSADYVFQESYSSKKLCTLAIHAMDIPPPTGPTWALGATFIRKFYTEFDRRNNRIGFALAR

[4] = test system: Ixodes ricinus; assay: Inhibition of Ixodes ricinus CatD expressed in Escherichia coli BL21(DE3) at 50 nM using Abz-Lys-Pro-Ala-Glu-Phe-Nph-Ala-Leu as substrate preincubated for 10 mins followed by substrate addition and measured by FRET assay
[5] = molecular target: Protease (Human immunodeficiency virus 1) (UniProt Q9YQ12); assay: Inhibition of HIV1 protease at 5 uM using Abz-Tyr-Ile-Nle-Nph-Gln-Arg as substrate preincubated for 10 mins followed by substrate addition and measured by FRET assay
[6] = molecular target: Beta-secretase 1 (Homo sapiens) (UniProt P56817); assay: Inhibition of recombinant human C-terminal 10His-tagged BACE1 expressed in mouse NS0 cells at 5 uM using Mca-Ser-Glu-Val-Asn-Leu-Asp-Ala-Glu-Phe-Arg-Lys(Dnp)-Arg-Arg as substrate preincubated for 10 mins followed by substrate addition and measured by FRET assay
Chain of Beta-secretase 1 (Homo sapiens) (P56817 whole entry): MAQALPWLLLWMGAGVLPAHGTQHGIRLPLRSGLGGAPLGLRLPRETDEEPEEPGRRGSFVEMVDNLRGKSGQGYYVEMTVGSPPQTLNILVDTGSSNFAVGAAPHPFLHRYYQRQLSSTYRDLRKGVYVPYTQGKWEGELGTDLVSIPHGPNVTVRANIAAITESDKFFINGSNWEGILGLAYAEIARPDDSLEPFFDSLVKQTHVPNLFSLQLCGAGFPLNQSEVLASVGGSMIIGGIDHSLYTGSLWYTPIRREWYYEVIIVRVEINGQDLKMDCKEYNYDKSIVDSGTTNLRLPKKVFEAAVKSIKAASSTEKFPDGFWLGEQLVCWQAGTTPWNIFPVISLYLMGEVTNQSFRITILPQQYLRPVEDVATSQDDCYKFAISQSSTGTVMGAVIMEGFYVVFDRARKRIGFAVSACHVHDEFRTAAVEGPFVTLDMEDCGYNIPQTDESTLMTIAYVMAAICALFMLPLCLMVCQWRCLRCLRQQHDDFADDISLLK

[7] = species: Sus scrofa; assay: Inhibition of porcine pepsin at 50 nM using Abz-Lys-Pro-Ala-Glu-Phe-Nph-Ala-Leu as substrate preincubated for 10 mins followed by substrate addition and measured by FRET assay
[8] = molecular target: Beta-secretase 1 (Homo sapiens) (UniProt P56817); assay: Inhibition of recombinant human C-terminal 10His-tagged BACE1 expressed in mouse NS0 cells at 50 nM using Mca-Ser-Glu-Val-Asn-Leu-Asp-Ala-Glu-Phe-Arg-Lys(Dnp)-Arg-Arg as substrate preincubated for 10 mins followed by substrate addition and measured by FRET assay
[9] = molecular target: Saccharopepsin (Saccharomyces cerevisiae S288c) (UniProt P07267); assay: Inhibition of Baker's yeast proteinase A at 50 nM using Abz-Lys-Pro-Ala-Glu-Phe-Nph-Ala-Leu as substrate preincubated for 10 mins followed by substrate addition and measured by FRET assay
Chain of Saccharopepsin (Saccharomyces cerevisiae S288c) (P07267 whole entry, the tested form may be a part): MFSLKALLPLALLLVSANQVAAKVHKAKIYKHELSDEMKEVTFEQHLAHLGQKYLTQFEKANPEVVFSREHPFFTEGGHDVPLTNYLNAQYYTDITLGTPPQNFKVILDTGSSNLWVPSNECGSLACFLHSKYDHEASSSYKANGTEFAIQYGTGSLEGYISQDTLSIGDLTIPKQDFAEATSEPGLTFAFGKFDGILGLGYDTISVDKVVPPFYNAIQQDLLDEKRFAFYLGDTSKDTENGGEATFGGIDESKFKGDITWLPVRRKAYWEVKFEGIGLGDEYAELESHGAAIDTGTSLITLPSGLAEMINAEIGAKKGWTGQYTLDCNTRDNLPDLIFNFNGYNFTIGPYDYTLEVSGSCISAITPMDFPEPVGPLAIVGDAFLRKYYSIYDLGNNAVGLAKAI

[10] = molecular target: T1, Renin (Homo sapiens); assay: Inhibition of recombinant human N-terminal FLAG-tagged renin (67 to 406 residues) expressed in HEK cells at 5 uM using Arg-Glu(EDANS)-Ile-His-Pro-Phe-His-Leu-Val-Ile-His-Thr-Lys(Dabcyl)-Arg as substrate preincubated for 10 mins followed by substrate addition and measured by FRET assay
[11] = Solubility of the compound in pH 7.4 phosphate buffered saline by HPLC-MS analysis; format: physicochemical
[12] = test system: PBMC; assay: Cytotoxicity against human PBMC cells assessed as reduction in cell viability up to 100 uM measured after 72 hrs by Celltiter-glo assay; format: cell-based
[13] = test system: NHDF; assay: Cytotoxicity against NHDF cells assessed as reduction in cell viability up to 100 uM measured after 72 hrs by Celltiter-glo assay; format: cell-based; details: human
[14] = Apparent permeability in human Caco2 cells at 5 uM measured after 5 hrs by LC-MS analysis; format: ADME, cell-based; details: Caco-2

Chain of Protease (Human immunodeficiency virus 1) (Q9YQ12 as listed by the source): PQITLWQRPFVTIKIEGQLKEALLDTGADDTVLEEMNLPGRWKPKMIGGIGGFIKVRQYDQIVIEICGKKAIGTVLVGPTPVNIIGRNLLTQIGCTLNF

Row | inhibition [1] | pIC50 [2] | inhibition [3] | inhibition [4] | inhibition [5] | inhibition [6] | inhibition [7] | inhibition [8] | inhibition [9] | inhibition [10] | solubility [11] | Papp at 5 h, 5 µM [14] | Structure (SMILES) | Activity [12] | Activity [13]
1 | inactive | 6.72 | inactive | Active | Active | Active | Active | inactive | Active | Active | – | – | CC(C)[C@@H]1NC(=O)C[C@H](O)[C@H](Cc2c[nH]c3ccccc23)NC(=O)CCCCCCCCCCCNC1=O | – | –
2 | inactive | 8.42 | inactive | Active | Active | Active | Active | inactive | Active | Active | – | – | CC[C@@H](C)[C@@H]1NC(=O)C[C@H](O)[C@H](Cc2ccccc2)NC(=O)CCCCCCCCCCCNC1=O | – | –
3 | inactive | 7.66 | inactive | Active | Active | Active | Active | inactive | Active | Active | – | – | CC(C)C[C@@H]1NC(=O)CCCCCCCCCCCNC(=O)[C@H](C(C)C)NC(=O)C[C@@H]1O | – | –
4 | inactive | 8.05 | inactive | Active | Active | Active | Active | inactive | Active | Active | – | – | CC(C)[C@@H]1NC(=O)C[C@H](O)[C@H](CC2CCCCC2)NC(=O)CCCCCCCCCCCNC1=O | – | –
5 | inactive | 7.82 | inactive | Active | Active | Active | Active | inactive | Active | Active | – | – | O=C1C[C@H](O)[C@H](Cc2ccccc2)NC(=O)CCCCCCCCCCCNC(=O)[C@H](Cc2ccccc2)N1 | – | –
6 | inactive | 7.57 | inactive | Active | Active | Active | Active | inactive | Active | Active | – | – | O=C1C[C@H](O)[C@H](Cc2ccccc2)NC(=O)CCCCCCCCCCCNC(=O)[C@H](c2ccccc2)N1 | – | –
7 | inactive | 7.80 | inactive | Active | Active | Active | Active | inactive | Active | Active | – | – | CC(=O)NCCCC[C@@H]1NC(=O)C[C@H](O)[C@H](Cc2ccccc2)NC(=O)CCCCCCCCCCCNC1=O | – | –
8 | – | – | – | – | – | – | – | – | – | – | 197 µg/mL (≈ 287 µM) | 0.11 ×10⁻⁶ cm/s | CC(C)CC(=O)N[C@H](C(=O)N[C@H](C(=O)N[C@@H](CC(C)C)[C@@H](O)CC(=O)N[C@@H](C)C(=O)N[C@@H](CC(C)C)[C@@H](O)CC(=O)O)C(C)C)C(C)C [PEPSTATIN] | Non-Toxic | Non-Toxic
9 | inactive | 7.96 | inactive | Active | Active | Active | Active | inactive | Active | Active | – | – | CC(C)[C@@H]1NC(=O)C[C@H](O)[C@H](Cc2ccccc2)NC(=O)CCCCCCCCCCCCCNC1=O | – | –
10 | inactive | 8.33 | inactive | Active | Active | Active | – | inactive | Active | Active | – | – | CC(C)[C@@H]1NC(=O)C[C@H](O)[C@H](Cc2ccc(F)cc2)NC(=O)CCCCCCCCCCCNC1=O | – | –
11 | inactive | 6.07 | inactive | Active | Active | Active | – | inactive | Active | Active | – | – | CC(C)[C@@H]1NC(=O)C[C@H](O)[C@H](Cc2ccccc2)NC(=O)CCOCCOCCOCCNC1=O | – | –
12 | inactive | 8.51 | inactive | Active | Active | Active | – | inactive | Active | Active | – | – | CC(C)[C@@H]1NC(=O)C[C@H](O)[C@H](Cc2ccc(F)c(F)c2)NC(=O)CCCCCCCCCCCNC1=O | – | –

Source: ChEMBL document CHEMBL4321885, “Biomimetic Macrocyclic Inhibitors of Human Cathepsin D: Structure-Activity Relationship and Binding Mode Analysis” (J Med Chem, 2020)
